From PubChem BioAssay (NCI)
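Method: 48-hour compound exposure of cells in 96-well plates, five concentrations, linear interpolation of endpoints. Here, GI50 denotes the concentration required for 50% inhibition of growth. TGI: concentration producing complete growth inhibition.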

What was measured:
Experiment in all cases: NCI tumour cell line growth inhibition, 48 h
UO-31 renal = test system: UO-31 renal
IGROV1 ovarian = test system: IGROV1 ovarian
SK-OV-3 ovarian = test system: SK-OV-3 ovarian
OVCAR-5 ovarian = test system: OVCAR-5 ovarian
UACC-62 melanoma = test system: UACC-62 melanoma
SK-MEL-5 melanoma = test system: SK-MEL-5 melanoma
SF-295 CNS = test system: SF-295 CNS
HCC-2998 colon = test system: HCC-2998 colon
HT29 colon = test system: HT29 colon
DU-145 prostate = test system: DU-145 prostate
KM12 colon = test system: KM12 colon
SK-MEL-2 melanoma = test system: SK-MEL-2 melanoma
MDA-MB-231 breast = test system: MDA-MB-231 breast
NCI-H226 lung = test system: NCI-H226 lung
T-47D breast = test system: T-47D breast
SF-268 CNS = test system: SF-268 CNS
786-0 renal = test system: 786-0 renal
BT-549 breast = test system: BT-549 breast
SR leukemia = test system: SR leukemia
SN12C renal = test system: SN12C renal
RPMI-8226 leukemia = test system: RPMI-8226 leukemia
NCI/ADR-RES ovarian = test system: NCI/ADR-RES ovarian
HOP-62 NSCLC = test system: HOP-62 NSCLC
U251 CNS = test system: U251 CNS
EKVX NSCLC = test system: EKVX NSCLC
A498 renal = test system: A498 renal
LOX IMVI melanoma = test system: LOX IMVI melanoma
A549 NSCLC = test system: A549 NSCLC
MALME-3M melanoma = test system: MALME-3M melanoma

Question: For `O=C(Nc1cccc(-n2cnc3cc(-c4ccc(O)cc4)ccc32)c1)C1CC1`, which GI50 (UO-31 renal) is on record?
Answer: The GI50 was 0.599 µM.

Question: What about the TGI (UO-31 renal) of the same molecule?
Answer: Its TGI is 19.3 µM.

Question: What about the GI50 (IGROV1 ovarian) of the same molecule?
Answer: Its GI50 is 0.591 µM.

Question: What about the TGI (IGROV1 ovarian) of the same molecule?
Answer: Its TGI is 26.9 µM.

Question: And the GI50 (SK-OV-3 ovarian)?
Answer: The GI50 was 0.82 µM.

Question: And the TGI (SK-OV-3 ovarian)?
Answer: Its TGI is 33.7 µM.

Question: What about the GI50 (OVCAR-5 ovarian) of the same molecule?
Answer: Its GI50 is 1.81 µM.

Question: What about the TGI (OVCAR-5 ovarian) of the same molecule?
Answer: Its TGI is 69.5 µM.

Question: What about the GI50 (UACC-62 melanoma) of the same molecule?
Answer: Its GI50 is 0.354 µM.

Question: And the TGI (UACC-62 melanoma)?
Answer: The TGI was 19.3 µM.

Question: What about the GI50 (SK-MEL-5 melanoma) of the same molecule?
Answer: The GI50 was 0.35 µM.

Question: And the TGI (SK-MEL-5 melanoma)?
Answer: The TGI was 14.8 µM.

Question: And the GI50 (SF-295 CNS)?
Answer: Its GI50 is 0.372 µM.

Question: What about the TGI (SF-295 CNS) of the same molecule?
Answer: The TGI was 7.67 µM.

Question: What about the GI50 (HCC-2998 colon) of the same molecule?
Answer: Its GI50 is 1.18 µM.

Question: What about the TGI (HCC-2998 colon) of the same molecule?
Answer: The TGI was 24.4 µM.

Question: What about the GI50 (HT29 colon) of the same molecule?
Answer: Its GI50 is 0.34 µM.

Question: What about the TGI (HT29 colon) of the same molecule?
Answer: The TGI was greater than 40.8 µM.

Question: What about the GI50 (DU-145 prostate) of the same molecule?
Answer: Its GI50 is 1.46 µM.

Question: And the TGI (DU-145 prostate)?
Answer: The TGI was 28.4 µM.

Question: And the GI50 (KM12 colon)?
Answer: The GI50 was 0.351 µM.

Question: And the TGI (KM12 colon)?
Answer: Its TGI is 13.9 µM.

Question: And the GI50 (SK-MEL-2 melanoma)?
Answer: The GI50 was 0.417 µM.

Question: What about the TGI (SK-MEL-2 melanoma) of the same molecule?
Answer: Its TGI is 23.6 µM.

Question: And the GI50 (MDA-MB-231 breast)?
Answer: Its GI50 is 0.7 µM.

Question: And the TGI (MDA-MB-231 breast)?
Answer: The TGI was 42.9 µM.

Question: And the GI50 (NCI-H226 lung)?
Answer: The GI50 was 2.88 µM.

Question: What about the TGI (NCI-H226 lung) of the same molecule?
Answer: Its TGI is 48.1 µM.

Question: And the GI50 (T-47D breast)?
Answer: The GI50 was 0.521 µM.

Question: What about the TGI (T-47D breast) of the same molecule?
Answer: Its TGI is 19.4 µM.

Question: And the GI50 (SF-268 CNS)?
Answer: Its GI50 is 0.935 µM.

Question: What about the TGI (SF-268 CNS) of the same molecule?
Answer: Its TGI is 71 µM.

Question: What about the GI50 (786-0 renal) of the same molecule?
Answer: The GI50 was 0.683 µM.

Question: What about the TGI (786-0 renal) of the same molecule?
Answer: Its TGI is 45.6 µM.

Question: What about the GI50 (BT-549 breast) of the same molecule?
Answer: Its GI50 is 0.396 µM.

Question: And the TGI (BT-549 breast)?
Answer: The TGI was 11.8 µM.

Question: What about the GI50 (SR leukemia) of the same molecule?
Answer: Its GI50 is 0.175 µM.

Question: And the TGI (SR leukemia)?
Answer: Its TGI is 59.6 µM.

Question: And the GI50 (SN12C renal)?
Answer: The GI50 was 0.55 µM.

Question: What about the TGI (SN12C renal) of the same molecule?
Answer: The TGI was 35.6 µM.

Question: And the GI50 (RPMI-8226 leukemia)?
Answer: Its GI50 is 0.615 µM.

Question: What about the TGI (RPMI-8226 leukemia) of the same molecule?
Answer: The TGI was 13.6 µM.

Question: What about the GI50 (NCI/ADR-RES ovarian) of the same molecule?
Answer: The GI50 was 0.539 µM.

Question: And the TGI (NCI/ADR-RES ovarian)?
Answer: Its TGI is 5.88 µM.

Question: And the GI50 (HOP-62 NSCLC)?
Answer: The GI50 was 0.625 µM.

Question: What about the TGI (HOP-62 NSCLC) of the same molecule?
Answer: The TGI was greater than 69.2 µM.

Question: What about the GI50 (U251 CNS) of the same molecule?
Answer: The GI50 was 0.514 µM.

Question: And the TGI (U251 CNS)?
Answer: Its TGI is greater than 100 µM.

Question: What about the GI50 (EKVX NSCLC) of the same molecule?
Answer: The GI50 was 0.782 µM.

Question: And the TGI (EKVX NSCLC)?
Answer: The TGI was 36.1 µM.

Question: And the GI50 (A498 renal)?
Answer: The GI50 was 19.5 µM.

Question: And the TGI (A498 renal)?
Answer: The TGI was 84.9 µM.

Question: And the GI50 (LOX IMVI melanoma)?
Answer: The GI50 was 0.478 µM.

Question: And the TGI (LOX IMVI melanoma)?
Answer: Its TGI is 22.1 µM.

Question: And the GI50 (A549 NSCLC)?
Answer: The GI50 was 0.895 µM.

Question: What about the TGI (A549 NSCLC) of the same molecule?
Answer: Its TGI is greater than 100 µM.

Question: And the GI50 (MALME-3M melanoma)?
Answer: Its GI50 is 0.555 µM.

Question: What about the TGI (MALME-3M melanoma) of the same molecule?
Answer: The TGI was 28.2 µM.
